According to article PMC2248166, “Quantitative peptide binding motifs for 19 human and mouse MHC class I molecules derived using positional scanning combinatorial peptide libraries” (Immunome Research, 2008):

What was measured:
Type in all cases: binding
HLA B*1501 = HLA B*1501 (Homo sapiens, UniProt P01889, A329T/A93T/A95T/C349S/D201E/D98Y/E187L/E204Q/E69M/E70A/K202T/N87E/Q94N/R155S/R180W/S121R/S35A/S48A/V306I/V36M/Y140S/Y91S); assay: biochemical
HLA B*5401 = HLA B*5401 (Homo sapiens, UniProt P01889, A329T/C349S/D138N/D201E/E176V/E187T/E204Q/E69G/I76V/K202T/L119W/R155S/R180L/S121T/S35A/S48A/V127L/V306I/V36M/Y140L)
H-2 K^d = H-2 K^d (Mus musculus, UniProt P01902)
HLA B*1503 = HLA B*1503 (Homo sapiens, UniProt P01889, A329T/A93T/A95T/C349S/D201E/D98Y/E187L/E204Q/K202T/N87E/Q94N/R155S/R180L/S121R/S35A/V306I/V36M/Y140S/Y91S); assay: biochemical
HLA B*5802 = HLA B*5802 (Homo sapiens, UniProt P01889, A329T/C349S/D201E/D98Y/E176V/E187L/E204Q/E69T/G107R/I218V/I90N/K202T/L105A/N104I/N87E/Q89R/Q94S/R106L/R155S/R180L/R86G/S101N/S121W/S35A/S48A/V127L/V306I/V36M/Y140S/Y91M)
H-2 D^d = H-2 D^d (Mus musculus, UniProt P01900)
HLA B*3501 = HLA B*3501 (Homo sapiens, UniProt P01889, A329T/A93T/A95T/C349S/D201E/D98Y/E176V/E187L/E204Q/E69T/I218V/K202T/L119I/Q94N/R155S/R180L/S121R/S35A/S48A/T118I/V127L/V306I/V36M/Y140S/Y91F)
HLA A*6802 = HLA A*6802 (Homo sapiens, UniProt P04439, A269V/D140Y/D185E/E176V/E277Q/E87N/F33Y/G231S/I121R/I166T/I218V/L180W/L300P/L318F/N151K/P208A/P217A/Q86R/R138H/R169H/S129P/T345S/V36M)
HLA B*0801 = HLA B*0801 (Homo sapiens, UniProt P01889, A93T/A95T/D138N/E176V/E187T/K202T/Q94N/R180D/S35A/V36M/Y33D/Y91F); assay: biochemical
HLA A*3201 = HLA A*3201 (Homo sapiens, UniProt P04439, A270S/D101S/D185E/E176V/E277Q/F133L/G103R/G107R/G231S/H175R/I121M/I218V/I322F/K168Q/L105A/L300P/L318F/M331R/P208A/P217A/Q94H/R106L/R138Q/S129P/T104I/T323A/T345S/V100E/V321M/V358M); assay: biochemical
HLA A*3001 = HLA A*3001 (Homo sapiens, UniProt P04439, D140H/D185E/E176W/F33S/G80R/H175R/K168Q/R138E/R41S); assay: biochemical
H-2 K^k = H-2 K^k (Mus musculus, UniProt P04223)
H-2 D^b = H-2 D^b (Mus musculus, UniProt P01899)
HLA B*5801 = HLA B*5801 (Homo sapiens, UniProt P01889, A329T/C349S/D201E/D98Y/E176V/E187L/E204Q/E69T/G107R/I218V/I90N/K202T/L105A/L119I/N104I/N87E/Q89R/Q94S/R106L/R155S/R180L/R86G/S101N/S121R/S35A/S48A/T118I/V127L/V306I/V36M/Y140S/Y91M)
HLA B*5101 = HLA B*5101 (Homo sapiens, UniProt P01889, A329T/A93T/A95T/C349S/D138N/D201E/D98Y/E187L/E204Q/E69T/G107R/I218V/K202T/L105A/L119W/N104I/Q94N/R106L/R155S/R180L/S101N/S121T/S35A/S48A/V306I/V36M/Y195H/Y91F)
HLA B*5301 = HLA B*5301 (Homo sapiens, UniProt P01889, A329T/A93T/A95T/C349S/D201E/D98Y/E176V/E187L/E204Q/E69T/G107R/I218V/K202T/L105A/L119I/N104I/Q94N/R106L/R155S/R180L/S101N/S121R/S35A/S48A/T118I/V127L/V306I/V36M/Y140S/Y91F)

H-2 D^d, sequence (P01900 whole entry, looked up): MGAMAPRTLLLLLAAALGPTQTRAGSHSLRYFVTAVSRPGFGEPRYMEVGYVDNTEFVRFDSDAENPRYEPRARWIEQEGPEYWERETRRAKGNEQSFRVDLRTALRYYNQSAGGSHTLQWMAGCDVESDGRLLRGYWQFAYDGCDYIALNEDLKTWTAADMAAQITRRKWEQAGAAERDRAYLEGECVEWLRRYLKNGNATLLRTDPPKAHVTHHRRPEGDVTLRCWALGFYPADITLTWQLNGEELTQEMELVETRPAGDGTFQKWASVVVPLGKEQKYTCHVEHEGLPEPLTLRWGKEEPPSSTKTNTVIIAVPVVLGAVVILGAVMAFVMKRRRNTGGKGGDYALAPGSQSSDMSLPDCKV
H-2 K^k, sequence (P01887 21-119): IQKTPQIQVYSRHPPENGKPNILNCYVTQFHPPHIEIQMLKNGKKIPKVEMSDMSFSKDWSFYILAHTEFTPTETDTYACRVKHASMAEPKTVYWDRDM
H-2 K^k, sequence (P04223 22-369): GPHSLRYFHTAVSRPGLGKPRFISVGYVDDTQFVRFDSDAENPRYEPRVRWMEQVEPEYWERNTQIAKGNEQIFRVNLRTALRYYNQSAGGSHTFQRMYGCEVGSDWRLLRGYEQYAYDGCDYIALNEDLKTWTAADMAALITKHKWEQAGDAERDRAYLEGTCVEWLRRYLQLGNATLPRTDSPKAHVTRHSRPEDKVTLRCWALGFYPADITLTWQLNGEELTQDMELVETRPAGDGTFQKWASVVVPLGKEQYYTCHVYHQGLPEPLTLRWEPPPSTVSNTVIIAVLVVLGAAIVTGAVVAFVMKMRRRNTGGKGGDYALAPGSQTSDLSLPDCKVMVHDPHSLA
H-2 D^b, sequence (P01887 21-119): as the sequence (P01887 21-119) above
H-2 D^b, sequence (P01899 25-362): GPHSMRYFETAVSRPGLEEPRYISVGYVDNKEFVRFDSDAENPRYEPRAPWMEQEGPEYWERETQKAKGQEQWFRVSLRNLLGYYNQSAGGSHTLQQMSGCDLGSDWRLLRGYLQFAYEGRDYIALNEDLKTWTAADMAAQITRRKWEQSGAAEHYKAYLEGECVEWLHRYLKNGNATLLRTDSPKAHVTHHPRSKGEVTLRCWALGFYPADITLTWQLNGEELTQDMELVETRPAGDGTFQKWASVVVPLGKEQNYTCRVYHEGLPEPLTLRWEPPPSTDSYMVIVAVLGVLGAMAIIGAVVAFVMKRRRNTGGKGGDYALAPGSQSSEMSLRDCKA
H-2 K^d, sequence (P01887 21-119): as the sequence (P01887 21-119) above
H-2 K^d, sequence (P01902 22-368): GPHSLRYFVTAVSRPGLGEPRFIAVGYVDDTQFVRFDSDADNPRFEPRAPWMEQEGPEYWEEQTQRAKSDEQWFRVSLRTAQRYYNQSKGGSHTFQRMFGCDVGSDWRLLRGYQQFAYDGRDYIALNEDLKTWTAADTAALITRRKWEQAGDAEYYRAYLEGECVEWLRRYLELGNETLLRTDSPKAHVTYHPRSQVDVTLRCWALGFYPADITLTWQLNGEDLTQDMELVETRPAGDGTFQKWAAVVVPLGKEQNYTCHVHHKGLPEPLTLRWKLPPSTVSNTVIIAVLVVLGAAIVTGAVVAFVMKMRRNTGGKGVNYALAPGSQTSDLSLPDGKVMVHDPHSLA

Row | Sequence | Normalized average relative binding affinity(ARB) (HLA B*1501) | Normalized average relative binding affinity(ARB) (HLA B*5401) | Normalized average relative binding affinity(ARB) (H-2 K^d) | Normalized average relative binding affinity(ARB) (HLA B*1503) | Normalized average relative binding affinity(ARB) (HLA B*5802) | Normalized average relative binding affinity(ARB) (H-2 D^d) | Normalized average relative binding affinity(ARB) (HLA B*3501) | Normalized average relative binding affinity(ARB) (HLA A*6802) | Normalized average relative binding affinity(ARB) (HLA B*0801) | Normalized average relative binding affinity(ARB) (HLA A*3201) | Normalized average relative binding affinity(ARB) (HLA A*3001) | Normalized average relative binding affinity(ARB) (H-2 K^k) | Normalized average relative binding affinity(ARB) (H-2 D^b) | Normalized average relative binding affinity(ARB) (HLA B*5801) | Normalized average relative binding affinity(ARB) (HLA B*5101) | Normalized average relative binding affinity(ARB) (HLA B*5301)
1 | XXXXGXXXX [3064.0086] | 0.77 | 0.19 | 0.30 | 0.65 | 0.37 | 0.11 | 0.35 | 1.0 | 0.029 | 0.31 | 0.29 | 0.17 | 0.064 | 0.38 | 0.31 | 0.32
2 | XXXXHXXXX [3064.0087] | 0.66 | 0.19 | 0.064 | 0.32 | 0.74 | 0.64 | 0.19 | 0.46 | 0.65 | 0.14 | 0.14 | 0.022 | 0.066 | 0.21 | 0.35 | 0.091
3 | XXXXIXXXX [3064.0088] | 0.32 | 0.13 | 0.19 | 0.12 | 0.79 | 0.28 | 0.26 | 0.88 | 0.080 | 0.59 | 0.20 | 0.24 | 0.020 | 0.34 | 0.33 | 0.30
4 | XXXXKXXXX [3064.0089] | 0.31 | 0.049 | 0.011 | 0.13 | 0.58 | 0.44 | 0.12 | 0.14 | 0.47 | 0.16 | 0.16 | 0.091 | 0.032 | 0.11 | 0.29 | 0.042
5 | XXXXLXXXX [3064.0090] | 0.69 | 0.15 | 0.18 | 0.090 | 0.063 | 0.28 | 0.23 | 0.43 | 0.062 | 0.57 | 0.14 | 0.11 | 0.10 | 0.25 | 0.30 | 0.18
